pEC50: −log10 of the molar value.
target: T1, human GPR119 (Homo sapiens, UniProt Q8TDV5); assay: AlphaScreen cAMP assay in MIN6 cells stably transfected with human GPR119; format: cell-based; conditions: Min-6/hGPR119 cells, AlphaScreen cAMP Assay Kit, 45 minutes incubation at room temperature
T1 construct: expression vector for human GPR119 cDNA (Acc. No. NP_848566); expressed in transfected cells
T1 sequence (Q8TDV5 1-335): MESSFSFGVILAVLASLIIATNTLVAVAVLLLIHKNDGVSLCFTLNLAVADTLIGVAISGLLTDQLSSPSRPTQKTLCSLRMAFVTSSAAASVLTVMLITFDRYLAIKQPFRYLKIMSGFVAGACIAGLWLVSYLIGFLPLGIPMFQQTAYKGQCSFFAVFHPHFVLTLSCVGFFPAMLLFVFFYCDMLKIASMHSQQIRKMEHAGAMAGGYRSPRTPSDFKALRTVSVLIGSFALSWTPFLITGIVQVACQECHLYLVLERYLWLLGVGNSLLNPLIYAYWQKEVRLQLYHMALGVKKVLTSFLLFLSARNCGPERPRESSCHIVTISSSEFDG
Method: The compounds of formula I according to the invention modulate the activity of the G-protein-coupled receptor GPR119. The effect of the compounds on the activation of GPR119 and on the stimulation of intracellular cAMP concentration is determined using the AlphaScreen cAMP Assay Kit (Cat. No. #6760625R) made by PerkinElmer.
MIN6 cells [Miyazaki J et al. Endocrinology. 1990 July; 127(1):126-32] are stably transfected with an expression vector for human GPR119 cDNA (Acc. No. NP_848566). Min-6/hGPR119 cells are cultured in DMEM, 10% FBS, 50 μM β-mercaptoethanol, 0.3 mg/mL Geniticin, 2 mM GlutaMAX at 37° C. 5% CO2. For the assay, the cells are seeded in Optiplates (white, 384-well, 160 W-barcoded, TC, sterile with lid, Cat. No. #6007688 (Perkin Elmer); 10000 cells/well; 50 μl). The plates covered with lids are then incubated for 24 hours at 37° C./5% CO2. After the medium is aspirated from the wells completely, 10 μl of the test compound are added, the compounds are diluted using stimulating buffer (140 mM NaCl, 3.6 mM KCl, 0.5 mM NaH2PO4, 0.5 mM MgSO4, 1.5 mM CaCl2, 10 mM Hepes, 5 mM NaHCO3; pH 7.4. 0.5 mM IBMX and 0.1% BSA, the final DMSO concentration is 1%). After 45 minutes incubation at room temperature (approx. 20° C.), the cAMP concentrations are determined using the AlphaScreen cAMP Assay Kit (Cat. No. #6760625R from PerkinElmer).

pEC50 | SMILES
7.82 | CC(C)c1noc(N2CCC(N(C(=O)c3ccc(-c4cnco4)cc3)C3CC3)CC2)n1 [Example 1, N-Cyclopropyl-N-[1-(3-isopropyl-[1,2,4]oxadiazol-5-yl)-piperidin-4-yl]-4-oxazol-5-yl-benzamide]
7.82 | CC(C)Cc1noc(N2CCC(N(C(=O)c3ccc(-c4cnco4)cc3)C3CC3)CC2)n1 [Example 2, N-Cyclopropyl-N-[1-(3-isobutyl-[1,2,4]oxadiazol-5-yl)-piperidin-4-yl]-4-oxazol-5-yl-benzamide]
7.72 | CC(C)(C)c1noc(N2CCC(N(C(=O)c3ccc(-c4cnco4)cc3)C3CC3)CC2)n1 [Example 3, N-[1-(3-tert-Butyl-[1,2,4]oxadiazol-5-yl)-piperidin-4-yl]-N-cyclopropyl-4-oxazol-5-yl-benzamide]
6.80 | COCc1noc(N2CCC(N(C(=O)c3ccc(-c4cnco4)cc3)C3CC3)CC2)n1 [Example 4, N-Cyclopropyl-N-[1-(3-methoxymethyl-[1,2,4]oxadiazol-5-yl)-piperidin-4-yl]-4-oxazol-5-yl-benzamide]
7.85 | O=C(c1ccc(-c2cnco2)cc1)N(C1CC1)C1CCN(c2nc(-c3ccc(I)cc3)no2)CC1 [Example 5, N-Cyclopropyl-N-{1-[3-(4-iodo-phenyl)-[1,2,4]oxadiazol-5-yl]-piperidin-4-yl}-4-oxazol-5-yl-benzamide]
7.64 | O=C(c1ccc(-c2cnco2)cc1)N(C1CC1)C1CCN(c2nc(-c3ccccc3)no2)CC1 [Example 6, N-Cyclopropyl-4-oxazol-5-yl-N-[1-(3-phenyl-[1,2,4]oxadiazol-5-yl)-piperidin-4-yl]-benzamide]
7.16 | O=C(c1ccc(-c2cnco2)cc1)N(C1CC1)C1CCN(c2nc(Cc3ccccc3)no2)CC1 [Example 7, N-[1-(3-Benzyl-[1,2,4]oxadiazol-5-yl)-piperidin-4-yl]-N-cyclopropyl-4-oxazol-5-yl-benzamide]
7.44 | CCCc1noc(N2CCC(N(C(=O)c3ccc(-c4cnco4)cc3)C3CC3)CC2)n1 [Example 8, N-Cyclopropyl-4-oxazol-5-yl-N-[1-(3-propyl-[1,2,4]oxadiazol-5-yl)-piperidin-4-yl]-benzamide]
7.10 | O=C(c1ccc(-c2cnco2)cc1)N(C1CC1)C1CCN(c2nc(-c3ccncc3)no2)CC1 [Example 9, N-Cyclopropyl-4-oxazol-5-yl-N-[1-(3-pyridin-4-yl-[1,2,4]oxadiazol-5-yl)-piperidin-4-yl]-benzamide]
7.89 | O=C(c1ccc(-c2cnco2)cc1)N(C1CC1)C1CCN(c2nc(-c3ccc(F)cc3)no2)CC1 [Example 10, N-Cyclopropyl-N-{1-[3-(4-fluoro-phenyl)-[1,2,4]oxadiazol-5-yl]-piperidin-4-yl}-4-oxazol-5-yl-benzamide]
7.01 | O=C(c1ccc(-c2cnco2)cc1)N(C1CC1)C1CCN(c2nc(-c3cccc(Br)c3)no2)CC1 [Example 11, N-{1-[3-(3-Bromo-phenyl)-[1,2,4]oxadiazol-5-yl]-piperidin-4-yl}-N-cyclopropyl-4-oxazol-5-yl-benzamide]
7.29 | CCc1noc(N2CCC(N(C(=O)c3ccc(-c4cnco4)cc3)C3CC3)CC2)n1 [Example 12, N-Cyclopropyl-N-[1-(3-ethyl-[1,2,4]oxadiazol-5-yl)-piperidin-4-yl]-4-oxazol-5-yl-benzamide]
7.59 | C=CCc1noc(N2CCC(N(C(=O)c3ccc(-c4cnco4)cc3)C3CC3)CC2)n1 [Example 13, N-[1-(3-Allyl-[1,2,4]oxadiazol-5-yl)-piperidin-4-yl]-N-cyclopropyl-4-oxazol-5-yl-benzamide]
7.57 | O=C(c1ccc(-c2cnco2)cc1)N(C1CC1)C1CCN(c2nc(-c3ccsc3)no2)CC1 [Example 14, N-Cyclopropyl-4-oxazol-5-yl-N-[1-(3-thiophen-3-yl-[1,2,4]oxadiazol-5-yl)-piperidin-4-yl]-benzamide]
6.82 | O=C(c1ccc(-c2cnco2)cc1)N(C1CC1)C1CCN(c2nc(-c3cccnc3)no2)CC1 [Example 15, N-Cyclopropyl-4-oxazol-5-yl-N-[1-(3-pyridin-3-yl-[1,2,4]oxadiazol-5-yl)-piperidin-4-yl]-benzamide]
6.69 | Cc1nc(-c2noc(N3CCC(N(C(=O)c4ccc(-c5cnco5)cc4)C4CC4)CC3)n2)cs1 [Example 16, N-Cyclopropyl-N-{1-[3-(2-methyl-thiazol-4-yl)-[1,2,4]oxadiazol-5-yl]-piperidin-4-yl}-4-oxazol-5-yl-benzamide]

pEC50 | SMILES
7.64 | O=C(c1ccc(-c2ccncc2)cc1)N(C1CC1)C1CCN(c2nc(-c3ccccc3)no2)CC1 [Example 17, N-Cyclopropyl-N-[1-(3-phenyl-[1,2,4]oxadiazol-5-yl)-piperidin-4-yl]-4-pyridin-4-yl-benzamide]
6.56 | O=C(c1ccc(-c2cnco2)cc1)N(C1CC1)C1CCN(c2nc(-c3ccccn3)no2)CC1 [Example 18, N-Cyclopropyl-4-oxazol-5-yl-N-[1-(3-pyridin-2-yl-[1,2,4]oxadiazol-5-yl)-piperidin-4-yl]-benzamide]
7.49 | CCc1cnc(N2CCC(N(C(=O)c3ccc(-c4cnco4)cc3)C3CC3)CC2)nc1 [Example 19, N-Cyclopropyl-N-[1-(5-ethyl-pyrimidin-2-yl)-piperidin-4-yl]-4-oxazol-5-yl-benzamide]
6.41 | O=C(c1ccc(-c2cnco2)cc1)N(C1CC1)C1CCN(c2ncccn2)CC1 [Example 20, N-Cyclopropyl-4-oxazol-5-yl-N-(1-pyrimidin-2-yl-piperidin-4-yl)-benzamide]
6.84 | N#Cc1ccc(N2CCC(N(C(=O)c3ccc(-c4cnco4)cc3)C3CC3)CC2)nc1 [Example 21, N-[1-(5-Cyano-pyridin-2-yl)-piperidin-4-yl]-N-cyclopropyl-4-oxazol-5-yl-benzamide]
7.22 | O=C(c1ccc(-c2cnco2)cc1)N(C1CC1)C1CCN(c2nc3ccccc3o2)CC1 [Example 22, N-(1-Benzooxazol-2-yl-piperidin-4-yl)-N-cyclopropyl-4-oxazol-5-yl-benzamide]
7.36 | CCCc1cnc(N2CCC(N(C(=O)c3ccc(-c4cnco4)cc3)C3CC3)CC2)nc1 [Example 23, N-Cyclopropyl-4-oxazol-5-yl-N-[1-(5-propyl-pyrimidin-2-yl)-piperidin-4-yl]-benzamide]
6.63 | O=C(c1ccc(-c2cnco2)cc1)N(C1CC1)C1CCN(c2ncc(-c3ccc(Cl)cc3)cn2)CC1 [Example 24, N-{1-[5-(4-Chloro-phenyl)-pyrimidin-2-yl]-piperidin-4-yl}-N-cyclopropyl-4-oxazol-5-yl-benzamide]
7.77 | O=C(c1ccc(-c2cnco2)cc1)N(C1CC1)C1CCN(c2ncc(Br)cn2)CC1 [Example 25, N-[1-(5-Bromo-pyrimidin-2-yl)-piperidin-4-yl]-N-cyclopropyl-4-oxazol-5-yl-benzamide]
7.33 | COc1cnc(N2CCC(N(C(=O)c3ccc(-c4cnco4)cc3)C3CC3)CC2)nc1 [Example 26, N-Cyclopropyl-N-[1-(5-methoxy-pyrimidin-2-yl)-piperidin-4-yl]-4-oxazol-5-yl-benzamide]
7.15 | COc1ccc(-c2cnc(N3CCC(N(C(=O)c4ccc(-c5cnco5)cc4)C4CC4)CC3)nc2)cc1 [Example 27, N-Cyclopropyl-N-{1-[5-(4-methoxy-phenyl)-pyrimidin-2-yl]-piperidin-4-yl}-4-oxazol-5-yl-benzamide]
6.17 | O=C(c1ccc(-c2cnco2)cc1)N(C1CC1)C1CCN(c2ccccn2)CC1 [Example 28, N-Cyclopropyl-4-oxazol-5-yl-N-(1-pyridin-2-yl-piperidin-4-yl)-benzamide]
7.11 | O=C(c1ccc(-c2cnco2)cc1)N(C1CC1)C1CCN(c2ncc(F)cn2)CC1 [Example 29, N-Cyclopropyl-N-[1-(5-fluoro-pyrimidin-2-yl)-piperidin-4-yl]-4-oxazol-5-yl-benzamide]
7.72 | O=C(c1ccc(-c2cnco2)cc1)N(C1CC1)C1CCN(c2ncc(Cl)cn2)CC1 [Example 30, N-[1-(5-Chloro-pyrimidin-2-yl)-piperidin-4-yl]-N-cyclopropyl-4-oxazol-5-yl-benzamide]
7.42 | O=C(c1ccc(-c2cnco2)cc1)N(C1CC1)C1CCN(c2ccc(C(F)(F)F)cn2)CC1 [Example 31, N-Cyclopropyl-4-oxazol-5-yl-N-[1-(5-trifluoromethyl-pyridin-2-yl)-piperidin-4-yl]-benzamide]
